# Measured values from ChEMBL document CHEMBL1201862, “PubChem BioAssay data set” (2004).
#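 Compound exposure: 48 hours, 5 concentrations, 96-well plates. GI50 is the concentration that inhibits growth by half.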 Active and inactive are the calls of the source. Cut-off read from the data, not from the text of the source: active = GI50 up to about 1.1 µM and inactive = higher.
# Assays:
# Assay in all cases: inhibition of tumour cell growth, NCI panel, 48 h
# SK-OV-3 = test system: SK-OV-3
# 786-0 = test system: 786-0
# NCI-H460 = test system: NCI-H460
# A498 = test system: A498
# NCI-H23 = test system: NCI-H23
# MDA-MB-435 = test system: MDA-MB-435
# IGROV-1 = test system: IGROV-1
# Hs-578T = test system: Hs-578T
# CCRF-CEM = test system: CCRF-CEM
# U-251 = test system: U-251
# SR = test system: SR
# EKVX = test system: EKVX
# OVCAR-8 = test system: OVCAR-8
# SK-MEL-2 = test system: SK-MEL-2
# SN12C = test system: SN12C
# HOP-62 = test system: HOP-62
# MCF7 = test system: MCF7
# ACHN = test system: ACHN
# MDA-N = test system: MDA-N
# SNB-19 = test system: SNB-19
# COLO 205 = test system: COLO 205
# HOP-92 = test system: HOP-92
# SK-MEL-5 = test system: SK-MEL-5
# SNB-75 = test system: SNB-75
# SK-MEL-28 = test system: SK-MEL-28
# NCI-H522 = test system: NCI-H522
# NCI/ADR-RES = test system: NCI/ADR-RES
# HT-29 = test system: HT-29
# NCI-H226 = test system: NCI-H226
# UO-31 = test system: UO-31
# DU-145 = test system: DU-145
# CAKI-1 = test system: CAKI-1
# MOLT-4 = test system: MOLT-4
# SF-295 = test system: SF-295
# A549 = test system: A549
# SF-539 = test system: SF-539
# UACC-62 = test system: UACC-62
# BT-549 = test system: BT-549
# SF-268 = test system: SF-268
# HCT-116 = test system: HCT-116
# MDA-MB-231 = test system: MDA-MB-231
# OVCAR-4 = test system: OVCAR-4
# T47D = test system: T47D
# Malme-3M = test system: Malme-3M
# K562 = test system: K562
# TK-10 = test system: TK-10
# RXF 393 = test system: RXF 393
# KM12 = test system: KM12
# HCC 2998 = test system: HCC 2998
# OVCAR-3 = test system: OVCAR-3
# SW-620 = test system: SW-620
# RPMI-8226 = test system: RPMI-8226
# UACC-257 = test system: UACC-257
# HCT-15 = test system: HCT-15
# M14 = test system: M14
# PC-3 = test system: PC-3
# LOX IMVI = test system: LOX IMVI
# OVCAR-5 = test system: OVCAR-5
# HL-60 = test system: HL-60
structure (smiles),measurement,setting,value
N=C(N)N/N=C\c1ccc(C2CCNCC2)cc1,GI50,SK-OV-3,> 100 µM (inactive)
same,GI50,786-0,> 100 µM (inactive)
same,GI50,NCI-H460,> 100 µM (inactive)
same,GI50,A498,> 100 µM (inactive)
same,GI50,NCI-H23,> 100 µM (inactive)
same,GI50,MDA-MB-435,> 100 µM (inactive)
same,GI50,IGROV-1,> 100 µM (inactive)
same,GI50,Hs-578T,> 100 µM (inactive)
same,GI50,CCRF-CEM,> 100 µM (inactive)
same,GI50,U-251,> 100 µM (inactive)
same,GI50,SR,> 100 µM (inactive)
same,GI50,EKVX,> 100 µM (inactive)
same,GI50,OVCAR-8,> 100 µM (inactive)
same,GI50,SK-MEL-2,> 100 µM (inactive)
same,GI50,SN12C,> 100 µM (inactive)
same,GI50,HOP-62,> 100 µM (inactive)
same,GI50,MCF7,> 100 µM (inactive)
same,GI50,ACHN,> 100 µM (inactive)
same,GI50,MDA-N,> 100 µM (inactive)
same,GI50,SNB-19,> 100 µM (inactive)
same,GI50,COLO 205,> 100 µM (inactive)
same,GI50,HOP-92,> 100 µM (inactive)
same,GI50,SK-MEL-5,> 100 µM (inactive)
same,GI50,SNB-75,> 100 µM (inactive)
same,GI50,SK-MEL-28,> 100 µM (inactive)
same,GI50,NCI-H522,> 100 µM (inactive)
same,GI50,NCI/ADR-RES,> 100 µM (inactive)
same,GI50,HT-29,> 100 µM (inactive)
same,GI50,NCI-H226,> 100 µM (inactive)
same,GI50,UO-31,> 100 µM (inactive)
same,GI50,DU-145,> 100 µM (inactive)
same,GI50,CAKI-1,> 100 µM (inactive)
same,GI50,MOLT-4,> 100 µM (inactive)
same,GI50,SF-295,> 100 µM (inactive)
same,GI50,A549,> 100 µM (inactive)
same,GI50,SF-539,> 100 µM (inactive)
same,GI50,UACC-62,> 100 µM (inactive)
same,GI50,BT-549,> 100 µM (inactive)
same,GI50,SF-268,> 100 µM (inactive)
same,GI50,HCT-116,> 100 µM (inactive)
same,GI50,MDA-MB-231,> 100 µM (inactive)
same,GI50,OVCAR-4,> 100 µM (inactive)
same,GI50,T47D,> 100 µM (inactive)
same,GI50,Malme-3M,> 100 µM (inactive)
same,GI50,K562,> 100 µM (inactive)
same,GI50,TK-10,> 100 µM (inactive)
same,GI50,RXF 393,> 100 µM (inactive)
same,GI50,KM12,> 100 µM (inactive)
same,GI50,HCC 2998,> 100 µM (inactive)
same,GI50,OVCAR-3,> 100 µM (inactive)
same,GI50,SW-620,> 100 µM (inactive)
same,GI50,RPMI-8226,> 100 µM (inactive)
same,GI50,UACC-257,> 100 µM (inactive)
same,GI50,HCT-15,> 100 µM
same,GI50,M14,> 100 µM (inactive)
same,GI50,PC-3,> 100 µM (inactive)
same,GI50,LOX IMVI,> 100 µM (inactive)
same,GI50,OVCAR-5,> 100 µM (inactive)
C=CCn1c(=O)ccn(COCCO)c1=O,GI50,NCI-H460,> 100 µM (inactive)
same,GI50,A498,> 100 µM (inactive)
same,GI50,NCI-H23,> 100 µM (inactive)
same,GI50,MDA-MB-435,> 100 µM (inactive)
same,GI50,IGROV-1,> 100 µM (inactive)
same,GI50,Hs-578T,> 100 µM (inactive)
same,GI50,CCRF-CEM,> 100 µM (inactive)
same,GI50,U-251,> 100 µM (inactive)
same,GI50,SR,> 100 µM (inactive)
same,GI50,EKVX,> 100 µM (inactive)
same,GI50,OVCAR-8,> 100 µM (inactive)
same,GI50,SK-MEL-2,> 100 µM (inactive)
same,GI50,SN12C,> 100 µM (inactive)
same,GI50,HOP-62,> 100 µM (inactive)
same,GI50,MCF7,> 100 µM (inactive)
same,GI50,ACHN,> 100 µM (inactive)
same,GI50,MDA-N,> 100 µM (inactive)
same,GI50,SNB-19,25.8 µM (inactive)
same,GI50,COLO 205,> 100 µM (inactive)
same,GI50,HOP-92,> 100 µM (inactive)
same,GI50,SK-MEL-5,> 100 µM (inactive)
same,GI50,SNB-75,> 100 µM (inactive)
same,GI50,SK-MEL-28,> 100 µM (inactive)
same,GI50,NCI-H522,> 100 µM (inactive)
same,GI50,NCI/ADR-RES,> 100 µM (inactive)
same,GI50,HT-29,> 100 µM (inactive)
same,GI50,NCI-H226,> 100 µM (inactive)
same,GI50,UO-31,> 100 µM (inactive)
same,GI50,DU-145,> 100 µM (inactive)
same,GI50,CAKI-1,> 100 µM (inactive)
same,GI50,MOLT-4,> 100 µM (inactive)
same,GI50,A549,> 100 µM (inactive)
same,GI50,SF-539,> 100 µM (inactive)
same,GI50,BT-549,> 100 µM (inactive)
same,GI50,SF-268,> 100 µM (inactive)
same,GI50,HL-60,> 100 µM (inactive)
same,GI50,MDA-MB-231,> 100 µM (inactive)
same,GI50,OVCAR-4,> 100 µM (inactive)
same,GI50,T47D,> 100 µM (inactive)
same,GI50,Malme-3M,> 100 µM (inactive)
same,GI50,K562,> 100 µM (inactive)
same,GI50,TK-10,> 100 µM (inactive)
same,GI50,RXF 393,> 100 µM (inactive)
same,GI50,KM12,> 100 µM (inactive)
same,GI50,HCC 2998,> 100 µM (inactive)
same,GI50,OVCAR-3,> 100 µM (inactive)
same,GI50,SW-620,> 100 µM (inactive)
same,GI50,RPMI-8226,> 100 µM (inactive)
same,GI50,UACC-257,> 100 µM (inactive)
same,GI50,M14,> 100 µM (inactive)
same,GI50,PC-3,> 100 µM (inactive)
same,GI50,LOX IMVI,> 100 µM (inactive)
same,GI50,OVCAR-5,> 100 µM (inactive)
